Experimental data published in publication PMC11790914, “Chemogenomics for steroid hormone receptors (NR3)” (Communications Chemistry, 2025).
Values joined by “and” are separate entries in the source; they are usually repeats but may differ in a detail not shown here. Identical values can stand only once. Like-named read-outs stand apart in the source and are kept apart here.

Legend:
[1] = target: T1, ABL1 (Homo sapiens, UniProt P00519); assay: Liability panel screening by DSF: ABL1; type: binding; conditions: read-out: Mean ΔTM ABL1
T1 construct: made in house
T1 sequence (P00519 whole entry, species assumed): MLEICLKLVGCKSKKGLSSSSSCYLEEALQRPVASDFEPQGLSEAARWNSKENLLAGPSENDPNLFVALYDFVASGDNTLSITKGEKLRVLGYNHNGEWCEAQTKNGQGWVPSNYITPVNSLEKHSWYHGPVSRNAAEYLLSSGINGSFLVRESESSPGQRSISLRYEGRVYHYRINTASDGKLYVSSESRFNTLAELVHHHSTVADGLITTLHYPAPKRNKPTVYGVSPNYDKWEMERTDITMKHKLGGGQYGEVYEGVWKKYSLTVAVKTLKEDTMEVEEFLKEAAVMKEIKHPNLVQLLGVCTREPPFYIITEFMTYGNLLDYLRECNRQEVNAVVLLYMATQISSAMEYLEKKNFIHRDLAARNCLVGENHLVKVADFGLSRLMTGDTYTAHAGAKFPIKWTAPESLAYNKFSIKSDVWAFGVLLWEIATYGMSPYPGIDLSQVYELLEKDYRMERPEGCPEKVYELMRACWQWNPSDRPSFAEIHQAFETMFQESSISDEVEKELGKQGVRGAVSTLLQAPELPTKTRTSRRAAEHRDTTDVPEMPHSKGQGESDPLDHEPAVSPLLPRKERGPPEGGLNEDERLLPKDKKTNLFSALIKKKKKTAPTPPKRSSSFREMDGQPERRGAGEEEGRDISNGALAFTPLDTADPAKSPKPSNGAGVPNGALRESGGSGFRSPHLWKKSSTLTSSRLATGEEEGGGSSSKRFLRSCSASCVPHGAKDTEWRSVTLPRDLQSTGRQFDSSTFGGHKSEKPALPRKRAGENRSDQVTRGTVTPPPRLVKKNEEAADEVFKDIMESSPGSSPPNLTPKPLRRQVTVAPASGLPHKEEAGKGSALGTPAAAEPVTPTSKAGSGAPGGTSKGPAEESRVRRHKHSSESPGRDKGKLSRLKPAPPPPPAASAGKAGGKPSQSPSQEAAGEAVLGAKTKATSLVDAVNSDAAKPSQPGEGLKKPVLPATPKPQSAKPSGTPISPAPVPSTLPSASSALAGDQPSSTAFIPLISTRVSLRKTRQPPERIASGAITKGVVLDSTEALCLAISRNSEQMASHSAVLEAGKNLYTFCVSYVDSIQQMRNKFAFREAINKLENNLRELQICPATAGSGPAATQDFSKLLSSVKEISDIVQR
In short: (§1)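 Thermal shift: in-house recombinant protein at 2 µM in 10 mM HEPES pH 7.5 with 500 mM NaCl, SYPRO Orange 1:1000, heated at 3 °C/min to 85 °C in technical duplicates. Tm is the Boltzmann inflection point, reported as ∆Tm in K.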

[2] = test system: NF-κB activity in HEK293 NF-κB reporter cells; assay: NF-kB activity assay (GFP reporter, ionomycin/PMA); type: cell-based; conditions: for Mean NFκB response: n=3; for NF-κB activity (inflammatory response to ionomycin/PMA): HEK293 NF-κB reporter cells, compounds at recommended concentrations, imaged over 24 h, n = 3
In short: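 HEK293 NF-κB GFP reporter cells given compound in 0.1% DMSO for 4 h, then stimulated with ionomycin 100 ng/mL plus PMA 10 ng/mL. Imaged every 90 min over 24 h; GFP-positive cell count normalized to confluence, three independent biological replicates.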

[3] = target: T2, CSNK1D (Homo sapiens, UniProt P48730); assay: Liability panel screening by DSF: CSNK1D; type: binding; conditions: read-out: Mean ΔTM CSNK1D
T2 construct: made in house
T2 sequence (P48730 whole entry, species assumed): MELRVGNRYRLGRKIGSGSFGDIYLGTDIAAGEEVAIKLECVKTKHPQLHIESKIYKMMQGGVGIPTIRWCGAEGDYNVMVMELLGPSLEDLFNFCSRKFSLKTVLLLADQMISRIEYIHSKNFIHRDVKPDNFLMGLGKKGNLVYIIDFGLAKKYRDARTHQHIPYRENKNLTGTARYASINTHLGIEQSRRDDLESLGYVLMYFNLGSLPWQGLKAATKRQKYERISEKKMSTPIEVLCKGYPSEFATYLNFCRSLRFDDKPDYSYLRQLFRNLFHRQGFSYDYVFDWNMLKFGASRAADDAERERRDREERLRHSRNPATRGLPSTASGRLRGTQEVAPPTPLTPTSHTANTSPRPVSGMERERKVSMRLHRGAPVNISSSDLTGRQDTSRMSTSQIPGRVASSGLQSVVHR
In short: as §1

[4] = target: T3, TRIM24 (Homo sapiens, UniProt O15164); assay: Liability panel screening by DSF: TRIM24; type: binding; conditions: read-out: Mean ΔTM TRIM24
T3 construct: This panel comprised ten highly ligandable kinases and bromodomains; made in house
T3 sequence (O15164 899-1004 limits assumed): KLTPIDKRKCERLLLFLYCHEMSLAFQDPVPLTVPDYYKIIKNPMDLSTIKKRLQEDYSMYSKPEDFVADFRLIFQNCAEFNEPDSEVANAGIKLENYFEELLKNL
In short: as §1

[5] = target: T4, BRPF1 (Homo sapiens, UniProt P55201); assay: Liability panel screening by DSF: BRPF1; type: binding; conditions: read-out: Mean ΔTM BRPF1
T4 construct: This panel comprised ten highly ligandable kinases and bromodomains; made in house
T4 sequence (P55201 628-732 limits assumed): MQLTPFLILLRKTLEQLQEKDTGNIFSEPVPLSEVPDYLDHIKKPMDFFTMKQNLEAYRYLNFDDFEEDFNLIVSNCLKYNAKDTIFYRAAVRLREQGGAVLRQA
In short: as §1

[6] = target: T5, MAPK1 (Homo sapiens, UniProt P28482); assay: Liability panel screening by DSF: MAPK1; type: binding; conditions: read-out: Mean ΔTM MAPK1
T5 construct: made in house
T5 sequence (P28482 whole entry, species assumed): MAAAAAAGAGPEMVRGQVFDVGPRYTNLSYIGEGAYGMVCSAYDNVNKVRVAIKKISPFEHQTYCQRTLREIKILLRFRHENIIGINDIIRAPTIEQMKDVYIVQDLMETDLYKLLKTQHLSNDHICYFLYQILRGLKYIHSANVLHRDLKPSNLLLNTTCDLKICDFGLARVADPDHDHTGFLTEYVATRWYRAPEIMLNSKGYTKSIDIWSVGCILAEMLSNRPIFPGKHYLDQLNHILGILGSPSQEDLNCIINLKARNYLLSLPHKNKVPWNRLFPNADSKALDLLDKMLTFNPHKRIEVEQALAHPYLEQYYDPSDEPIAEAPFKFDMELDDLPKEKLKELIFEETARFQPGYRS
In short: as §1

[7] = target: T6, CDK2 (Homo sapiens, UniProt P24941); assay: Liability panel screening by DSF: CDK2; type: binding; conditions: read-out: Mean ΔTM CDK2
T6 construct: made in house
In short: as §1

[8] = target: T7, BRD4 (Homo sapiens, UniProt O60885); assay: Liability panel screening by DSF: BRD4; type: binding; conditions: read-out: Mean ΔTM BRD4
T7 construct: This panel comprised ten highly ligandable kinases and bromodomains; made in house
In short: as §1

[9] = test system: ATF6 activity in Hela ATF6 reporter cells; assay: Endoplasmic reticulum stress assay (ATF6 Renilla luciferase reporter, tunicamycin); type: cell-based; conditions: for ATF6 activity (tunicamycin-induced endoplasmic reticulum stress): Hela ATF6 reporter cells, tunicamycin 100 ng/mL, 18 h, compounds at recommended concentrations, n = 5; for activity at 1 µM: Homo sapiens, HeLa, single replicates n=1 to n=5, read-out: ER stress [rel. ATF6 activity]
In short: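 HeLa ATF6 Renilla reporter cells were pretreated 4 h with compounds in 0.1% DMSO, then stimulated with tunicamycin (100 ng/mL) for 18 h. Renilla luminescence (DualGlo) was normalized to 0.1% DMSO control; five independent experiments.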

[10] = target: T8, AURKA (Homo sapiens, UniProt O14965); assay: Liability panel screening by DSF: AURKA; type: binding; conditions: read-out: Mean ΔTM AURKA
T8 construct: made in house
T8 sequence (O14965 1-403): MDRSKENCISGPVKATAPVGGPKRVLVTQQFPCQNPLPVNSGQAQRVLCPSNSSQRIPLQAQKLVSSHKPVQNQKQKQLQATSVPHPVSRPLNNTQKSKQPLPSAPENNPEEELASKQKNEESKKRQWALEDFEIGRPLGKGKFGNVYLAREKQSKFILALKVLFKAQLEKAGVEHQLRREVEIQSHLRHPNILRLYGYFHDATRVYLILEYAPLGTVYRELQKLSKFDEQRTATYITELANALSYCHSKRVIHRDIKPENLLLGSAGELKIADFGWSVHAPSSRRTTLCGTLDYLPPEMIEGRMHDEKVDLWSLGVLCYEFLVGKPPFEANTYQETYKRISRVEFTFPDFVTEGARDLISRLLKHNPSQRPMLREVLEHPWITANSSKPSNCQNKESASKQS
In short: as §1

[11] = target: T9, FGFR3 (Homo sapiens, UniProt P22607); assay: Liability panel screening by DSF: FGFR3; type: binding; conditions: read-out: Mean ΔTM FGFR3
T9 construct: made in house
T9 sequence (P22607 23-806, species assumed): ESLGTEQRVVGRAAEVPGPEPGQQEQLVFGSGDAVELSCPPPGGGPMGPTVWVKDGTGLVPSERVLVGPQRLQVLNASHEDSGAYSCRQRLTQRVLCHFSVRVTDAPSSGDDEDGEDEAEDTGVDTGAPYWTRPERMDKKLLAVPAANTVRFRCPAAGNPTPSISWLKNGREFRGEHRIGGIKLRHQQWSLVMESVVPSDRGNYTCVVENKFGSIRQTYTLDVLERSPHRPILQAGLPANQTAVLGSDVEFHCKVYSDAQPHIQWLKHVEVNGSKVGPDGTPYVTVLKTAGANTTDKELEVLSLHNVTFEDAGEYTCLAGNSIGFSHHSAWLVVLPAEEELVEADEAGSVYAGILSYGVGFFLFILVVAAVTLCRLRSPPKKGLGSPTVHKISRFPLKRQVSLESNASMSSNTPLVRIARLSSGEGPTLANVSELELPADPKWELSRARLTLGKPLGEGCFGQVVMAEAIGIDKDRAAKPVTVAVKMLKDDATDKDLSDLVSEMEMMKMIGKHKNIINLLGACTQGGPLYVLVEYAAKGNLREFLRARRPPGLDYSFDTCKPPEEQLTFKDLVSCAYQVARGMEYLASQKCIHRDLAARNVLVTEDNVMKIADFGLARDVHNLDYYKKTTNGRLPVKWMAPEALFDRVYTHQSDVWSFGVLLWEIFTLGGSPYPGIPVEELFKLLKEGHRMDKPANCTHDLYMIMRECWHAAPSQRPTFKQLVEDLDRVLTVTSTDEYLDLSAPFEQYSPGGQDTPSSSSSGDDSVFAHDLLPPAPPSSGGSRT
In short: as §1

[12] = target: T10, GSK3B (Homo sapiens, UniProt P49841); assay: Liability panel screening by DSF: GSK3B; type: binding; conditions: read-out: Mean ΔTM GSK3B
T10 construct: made in house
T10 sequence (P49841 whole entry, species assumed): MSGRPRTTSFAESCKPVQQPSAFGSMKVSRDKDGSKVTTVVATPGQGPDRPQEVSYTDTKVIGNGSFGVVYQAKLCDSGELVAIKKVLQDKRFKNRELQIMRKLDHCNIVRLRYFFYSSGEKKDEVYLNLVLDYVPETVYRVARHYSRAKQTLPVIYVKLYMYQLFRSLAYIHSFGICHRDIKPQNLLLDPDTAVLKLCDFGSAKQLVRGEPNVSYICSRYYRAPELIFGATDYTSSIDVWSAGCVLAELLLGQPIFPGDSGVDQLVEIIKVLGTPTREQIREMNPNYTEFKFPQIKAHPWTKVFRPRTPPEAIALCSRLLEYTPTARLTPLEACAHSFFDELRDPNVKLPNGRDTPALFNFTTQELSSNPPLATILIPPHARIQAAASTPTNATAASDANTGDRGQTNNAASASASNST

[13] = test system: HEK293T cells; assay: Cytotoxicity: growth-rate (change in confluence over 24 h); conditions: 1 µM, normalized to 0.1% DMSO control, single replicates (n=1...)
[14] = test system: NR3A2 (ERβ); conditions: cited from earlier work
[15] = test system: HEK293T cells; assay: Cytotoxicity: necrosis induction (red fluorescent dye for permeable plasma membranes); type: cell-based; conditions: 1 µM, 24 h, necrotic cell count normalized to 0.1% DMSO, single replicates;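 note: compounds applied in DMEM high glucose with 0.1% FCS and 0.1% DMSO, necrotic HEK293T cells counted by red staining of cells whose plasma membranes had become permeable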
Procedure: Cells were incubated with the test compounds at the indicated concentrations solubilized with 0.1% DMSO for 24 h. […] Necrotic cells were detected with a red fluorescent dye that labels cells with permeable plasma membranes after 24 h treatment and the necrotic cell count was normalized to 0.1% DMSO treated cells (n = 4). e NR family selectivity profiling of NR3 CG compound candidates in uniform Gal4-hybrid reporter gene assays for selected NR representing the NR1, NR2, NR4 and NR5 families.
HEK293T cells (German Collection of Microorganisms and Cell Culture GmbH, DSMZ; #ACC305) were cultured in DMEM high glucose, supplemented with 10% fetal calf serum (FCS), sodium pyruvate (1 mM), penicillin (100 µ/mL) and streptomycin (100 µg/mL) at 37 °C and 5% (v/v) CO2, and seeded in pre-coated (10 µg/mL collagen G solution (Merck KgaA; #L7213) for 30 min at 37 °C) 96-well plates (2 × 10^5 cells per well). After 24 h, the cells were treated with the respective NR3 CG compound candidate at the recommended concentration, bexarotene (100 µM) or doxorubicin (30 µM) as positive controls in DMEM high glucose supplemented with 0.1% FCS, penicillin (100 µ/mL), streptomycin (100 µg/mL) and 0.1% DMSO, or 0.1% DMSO alone as an untreated control. Each sample was prepared in at least four biologically independent replicates. […] Before drug administration, after the first medium exchange, 24 h after drug administration, and after fluorescence imaging cell confluence was assessed using the Tecan Spark Cyto, to account for changes in cell confluence due to drug administration and cell handling. Compound effects on cell confluence, apoptosis, metabolic activity and necrosis were normalized to the vehicle control of each biological replicate individually.

[16] = test system: HEK293T cells; assay: Cytotoxicity: apoptosis induction (caspase-3/7 DEVD fluorogenic DNA dye); conditions: 1 µM; HEK293T, 24 h; apoptotic cell count normalized to 0.1% DMSO; single replicates
Procedure: (§2) Cells were incubated with the test compounds at the indicated concentrations solubilized with 0.1% DMSO for 24 h. Growth-rate was determined based on the change in confluence over 24 h normalized to the change in confluence of cells treated with the 0.1% DMSO control (n = 10). Metabolic activity was determined with a water-soluble tetrazolium-8 (WST-8) assay (n = 8) after 24 h treatment. Apoptotic cells were detected with a fluorogenic DNA dye coupled to the caspase-3/7 recognition sequence (DEVD) after 24 h treatment and the apoptotic cell count was normalized to 0.1% DMSO treated cells (n = 6).
(§3) HEK293T cells (German Collection of Microorganisms and Cell Culture GmbH, DSMZ; #ACC305) were cultured in DMEM high glucose, supplemented with 10% fetal calf serum (FCS), sodium pyruvate (1 mM), penicillin (100 µ/mL) and streptomycin (100 µg/mL) at 37 °C and 5% (v/v) CO2, and seeded in pre-coated (10 µg/mL collagen G solution (Merck KgaA; #L7213) for 30 min at 37 °C) 96-well plates (2 × 10^5 cells per well). After 24 h, the cells were treated with the respective NR3 CG compound candidate at the recommended concentration, bexarotene (100 µM) or doxorubicin (30 µM) as positive controls in DMEM high glucose supplemented with 0.1% FCS, penicillin (100 µ/mL), streptomycin (100 µg/mL) and 0.1% DMSO, or 0.1% DMSO alone as an untreated control. Each sample was prepared in at least four biologically independent replicates. […] Thereafter, the medium was aspirated and the cells were incubated for 3 h with 90 µL DMEM high glucose supplemented with 0.2% FCS, penicillin (100 µ/mL) and streptomycin (100 µg/mL) and additionally containing 10 µL Cell Counting Kit 8 solution (CCK-8; MedChemExpress, Monmouth Junction, New York, USA; #HY-K0301), and absorbance was measured at 1 h, 2 h and 3 h of incubation at 450 nm on a Tecan Spark Cyto to assess metabolic activity of the cells. Before drug administration, after the first medium exchange, 24 h after drug administration, and after fluorescence imaging cell confluence was assessed using the Tecan Spark Cyto, to account for changes in cell confluence due to drug administration and cell handling. Compound effects on cell confluence, apoptosis, metabolic activity and necrosis were normalized to the vehicle control of each biological replicate individually.

[17] = test system: HEK293T cells; assay: Cytotoxicity: metabolic activity (WST-8 / CCK-8 assay); conditions: 1 µM; HEK293T, 24 h; WST-8; normalized to 0.1% DMSO; single replicates
Procedure: as §2, §3

[18] = test system: NR3A1 (ERα); conditions: cited from earlier work
[19] = test system: Gal4-VP16; type: cell-based; conditions: 1 µM; vs. DMSO ctrl; single replicates n=1-3

Compound | Mean NFκB response ([2]; 1 µM, 1,5 h) | Mean NFκB response ([2]; 1 µM, 4,5 h) | Mean NFκB response ([2]; 1 µM, 7,5 h) | Mean NFκB response ([2]; 1 µM, 10,5 h) | Mean NFκB response ([2]; 1 µM, 13,5 h) | Mean NFκB response ([2]; 1 µM, 16,6 h) | Mean NFκB response ([2]; 1 µM, 19,5 h) | Mean NFκB response ([2]; 1 µM, 22,5 h) | Mean NFκB response ([2]; 1 µM, 3 h) | Mean NFκB response ([2]; 1 µM, 6 h) | Mean NFκB response ([2]; 1 µM, 9 h) | Mean NFκB response ([2]; 1 µM, 12 h) | Mean NFκB response ([2]; 1 µM, 15 h) | Mean NFκB response ([2]; 1 µM, 18 h) | Mean NFκB response ([2]; 1 µM, 21 h) | Mean NFκB response ([2]; 1 µM, 24 h) | NF-κB activity (inflammatory response to ionomycin/PMA) [2] | ATF6 activity (tunicamycin-induced endoplasmic reticulum stress) [9] | activity at 1 µM [9] [%] | Growth rate [GR] [13] | further results
CC[C@@H]1Cc2cc(O)ccc2C2=C1c1ccc(O)cc1C[C@H]2CC [(R,R)-THC] | 3557.96 GFP+-cells/confluence ∙ 1000 | 4261.58 GFP+-cells/confluence ∙ 1000 | 9104.56 GFP+-cells/confluence ∙ 1000 | 19176.29 GFP+-cells/confluence ∙ 1000 | 27638.90 GFP+-cells/confluence ∙ 1000 | 33810.34 GFP+-cells/confluence ∙ 1000 | 37834.35 GFP+-cells/confluence ∙ 1000 | 40864.97 GFP+-cells/confluence ∙ 1000 | 3459.65 GFP+-cells/confluence ∙ 1000 | 5471.05 GFP+-cells/confluence ∙ 1000 | 14572.22 GFP+-cells/confluence ∙ 1000 | 23454.30 GFP+-cells/confluence ∙ 1000 | 30888.37 GFP+-cells/confluence ∙ 1000 | 35947.21 GFP+-cells/confluence ∙ 1000 | 39332.93 GFP+-cells/confluence ∙ 1000 | 42047.68 GFP+-cells/confluence ∙ 1000 | no impact on NF-κB activity | mediated resolution of the tunicamycin-induced endoplasmic reticulum stress | 66 | 1.15 and 0.31 and 1.59 and 1.75 and 1.08 and 0.52 and 0.68 and 0.76 and 0.64 and 0.98 | ΔTm at 20 µM [1]: 5.33 °C; ΔTm at 20 µM [3]: -0.65 °C; ΔTm at 20 µM [4]: 0.93 °C; ΔTm at 20 µM [5]: -0.77 °C; ΔTm at 20 µM [6]: 0.61 °C; ΔTm at 20 µM [7]: 1.76 °C; ΔTm at 20 µM [8]: -3.36 °C; ΔTm at 20 µM [10]: 1.62 °C; ΔTm at 20 µM [11]: 0.08 °C; ΔTm at 20 µM [12]: 1.59 °C; IC50 ([14]; (lit.), ref Supplementary Table 1, read-out: Potency [nM] IC50, NR3A2 (ERβ)): ~4 nM; rel. activity from literature, NR3A2 (ERβ): RBA to estradiol ([14]; relative binding affinity to estradiol): 25 ± 6 RBA; Necrosis induction [NI] [15]: 1.00 and 0.96 and 0.79 and 1.43; Apoptosis induction [AI] [16]: -0.98 and -0.31 and -0.46 and 0.85 and 0.74 and 1.53; Metabolic activity [MA] [17]: 1.06 and 1.04 (2×) and 0.92 and 1.05 (2×) and 0.98 and 0.82
COc1ccc2c(c1)OC(C)(C)C(c1ccccc1)C2c1ccc(OCCN2CCCC2)cc1 (centres unmarked) [Ormeloxifene] | 3755.51 GFP+-cells/confluence ∙ 1000 | 4450.99 GFP+-cells/confluence ∙ 1000 | 10042.81 GFP+-cells/confluence ∙ 1000 | 20884.44 GFP+-cells/confluence ∙ 1000 | 30159.52 GFP+-cells/confluence ∙ 1000 | 36246.87 GFP+-cells/confluence ∙ 1000 | 41125.44 GFP+-cells/confluence ∙ 1000 | 44312.79 GFP+-cells/confluence ∙ 1000 | 3914.66 GFP+-cells/confluence ∙ 1000 | 5719.43 GFP+-cells/confluence ∙ 1000 | 15929.12 GFP+-cells/confluence ∙ 1000 | 25867.46 GFP+-cells/confluence ∙ 1000 | 33826.67 GFP+-cells/confluence ∙ 1000 | 39021.43 GFP+-cells/confluence ∙ 1000 | 42782.99 GFP+-cells/confluence ∙ 1000 | 45591.11 GFP+-cells/confluence ∙ 1000 | no impact on NF-κB activity | mediated resolution of the tunicamycin-induced endoplasmic reticulum stress | 39 | 0.58 and 1.95 and 0.92 and 1.05 and 0.91 and 0.78 and 1.00 and 2.25 and 0.88 and 10.36 | ΔTm at 20 µM ([1]; DSF, 20 µM, n=2): -0.02 °C; ΔTm at 20 µM ([3]; DSF, 20 µM, n=2): -0.1 °C; ΔTm at 20 µM ([4]; DSF, 20 µM, n=2): -3.44 °C; EC50 ([18]; (lit.), ref Supplementary Table 1, read-out: Potency [nM] EC50, NR3A1 (ERα)): 13 ± 0.4 nM; rel. activity from literature, NR3A1 (ERα): % of moxestrol ([18]; of moxestrol): 25 ± 2%; VP16 control [fold reporter gene activity] [19]: 1.02 fold reporter gene activity and 1.04 fold reporter gene activity and 1.38 fold reporter gene activity; ΔTm at 20 µM ([5]; DSF, 20 µM, n=2): -2.59 °C; ΔTm at 20 µM ([6]; DSF, 20 µM, n=2): -2.68 °C; ΔTm at 20 µM ([7]; DSF, 20 µM, n=2): -2.04 °C; ΔTm at 20 µM ([8]; DSF, 20 µM, n=2): -3.83 °C; ΔTm at 20 µM ([10]; DSF, 20 µM, n=2): 0.51 °C; ΔTm at 20 µM ([11]; DSF, 20 µM, n=2): 0.15 °C; ΔTm at 20 µM ([12]; DSF, 20 µM, n=2): 0 °C; Necrosis induction [NI] [15]: 1.44 and 1.00 and 0.84 and 1.46; Apoptosis induction [AI] [16]: 0.93 and 1.23 and 0.90 and 1.47 and 0.53 and 0.80; Metabolic activity [MA] [17]: 1.06 and 1.01 and 0.96 and 1.00 and 1.02 and 0.99 and 1.05 (2×)
